PMC8859269, “Lichenysin Production by Bacillus licheniformis Food Isolates and Toxicity to Human Cells” (Frontiers in Microbiology, 2022)
Converted amounts (≈) assume the structure as drawn. “Also recorded” adds a separate entry of the source. Like-named read-outs stand apart in the source and are kept apart here. Numbered stars: 1 amine (or outer) side, 2 acyl side, 3 side chain; on linkers, the order of the positions; unused ones are H or OH. Bridge positions count the residues as written; N and C are the ends. Square brackets hold non-standard residues; d marks the D form. Peptide text beside a SMILES is read from it. X2 = CC(C)CCCCCCCCC[C@H](CC(=O)[*:1])O[*:2]

What was measured:
[1] = alamarBlue cytotoxicity assay, HEK293 cells; format: cell-based, human; settings: human; HEK293, 72 h exposure, alamarBlue; read-out: IC50 (cytotoxic level)
Method: (§1) To perform cytotoxicity assay, two batches of concentrated lichenysin were prepared from biomass grown on LB agar plates as described in section “Extraction of Lichenysin From Biomass Collected From Surface Growth on LB Agar and Skimmed Milk Agar.” Instead of using 150 mg biomass, lichenysin was extracted from 6.5 g of biomass from strain B4123, and dissolved in a final volume of 300 μl methanol. A small aliquot of 1 μl was taken to determine the concentration of the concentrated lichenysin extract via Reversed-Phase High-Performance Liquid Chromatography – Electro Spray Ionization Mass Spectrometry (RP-HPLC-ESI-MS). […]
(§2) The alamarBlue (Thermo Fischer Scientific) fluorometric assay was used to examine the cytotoxicity of lichenysin and surfactin toward two human cell lineages (HEK293, Caco-2) and ileum organoids from pigs. Culturing medium DMEM with Alamar blue (i.e., a no-cells control) and cells exposed to 10% DMSO were used to correct for background fluorescence and cell death, respectively. […]
(§3) The alamarBlue assay was performed as described in [Burczynski et al. (2000)], [Hamid et al. (2004)], and [Rampersad (2012)]. […] The fluorescence at the emission wavelength of 590 nm was measured with a SpectraMax M5 (Molecular Devices, San Jose, CA, United States) and expressed as relative fluorescence units. […]
(§4) The cell viability (%) was calculated by using the formula: […]

[2] = tested on: Human Embryonic Kidney (HEK293) cells; assay: alamarBlue cytotoxicity assay, HEK293 cells; format: cell-based; settings: HEK293, 200 μM (∼200 μg/ml), exposure for 72 h
Method: as §1, §2, §3, §4

[3] = alamarBlue cytotoxicity assay, Caco-2 cells; format: cell-based, human; settings: human, Caco-2, 72 h exposure, alamarBlue; read-out: IC50 (cytotoxic level)
Method: (§5) To perform cytotoxicity assay, two batches of concentrated lichenysin were prepared from biomass grown on LB agar plates as described in section “Extraction of Lichenysin From Biomass Collected From Surface Growth on LB Agar and Skimmed Milk Agar.” Instead of using 150 mg biomass, lichenysin was extracted from 6.5 g of biomass from strain B4123, and dissolved in a final volume of 300 μl methanol. A small aliquot of 1 μl was taken to determine the concentration of the concentrated lichenysin extract via Reversed-Phase High-Performance Liquid Chromatography – Electro Spray Ionization Mass Spectrometry (RP-HPLC-ESI-MS). The remaining concentrated extract was entirely evaporated under a flow of nitrogen at 40°C in a heating block. The dry residue was resuspended in either 99% Dimethyl Sulfoxide (DMSO) or Dulbecco’s Modified Eagle Medium (DMEM; Gibco, Thermo Fischer Scientific, Bleiswijk, Netherlands) without phenol red serum or antibiotics. Surfactin (purchased from Merck) was also used in cytotoxicity assays by dissolving 10 mg in 1 ml of distilled water (10 mM) (with an adjusted pH of ∼11.7 to obtain full solubility). Both lichenysin and surfactin were diluted to the desired concentration in DMEM medium without phenol red, serum and antibiotics before adding to the cells.
(§6) Human Embryonic Kidney (HEK293) cells were obtained from Invivogen (San Diego, CA, United States), and Caco-2 human intestinal epithelial cells (ATCC HTB-37) were purchased from the American Type Culture Collection (Manassas, VA, United States). Both cell lines were maintained in DMEM medium containing 10 % Fetal Bovine Serum (FBS) (Thermo Fischer Scientific) and 1 % penicillin/streptomycin (Merck) to attain a confluent growth. The grown HEK293 and Caco-2 cells were seeded and suspended at a final concentration of 2 × 10^5 cells/ml (in 200 μl) in 96 wells-plates (Greiner). […]
as §2
(§7) The alamarBlue assay was performed as described in [Burczynski et al. (2000)], [Hamid et al. (2004)], and [Rampersad (2012)]. […] The fluorescence at the emission wavelength of 590 nm was measured with a SpectraMax M5 (Molecular Devices, San Jose, CA, United States) and expressed as relative fluorescence units. The average fluorescence of the no-cells control was used to normalize all recorded fluorescence emission values.
as §4

[4] = tested on: Caco-2 human intestinal epithelial cells; assay: alamarBlue cytotoxicity assay, Caco-2 cells; format: cell-based; settings: Homo sapiens, Caco-2, 72 h
Method: as §5, §6, §2, §7, §4

[5] = alamarBlue cytotoxicity assay, pig ileum organoids; format: cell-based; settings: 72 h exposure, alamarBlue, read-out: IC50 (cytotoxic level)
Method: as §1, §2, §3, §4

pig ileum organoids = assay: alamarBlue cytotoxicity assay, pig ileum organoids; format: cell-based; settings: 200 μM, 72 h
Method: as §1, §2, §3, §4

CC(C)CCCCCCCCC[C@@H]1CC(=O)N[C@@H](CCC(=O)O)C(=O)N[C@@H](CC(C)C)C(=O)N[C@H](CC(C)C)C(=O)N[C@@H](C(C)C)C(=O)N[C@@H](CC(=O)O)C(=O)N[C@H](CC(C)C)C(=O)N[C@@H](CC(C)C)C(=O)O1 [Surfactin, cyclo-[Glu^1-Leu^2-Leu^3-Val^4-Asp^5-Leu^6-Leu^7 − − β-OH fatty acid]] (EL[dL]VD[dL]L; linker N-C via X2)
IC50 [1]: > 200 µg/mL
toxicity at the highest tested concentration [2]: not toxic
IC50 [3]: 23.5 µg/mL (≈ 22.7 µM)
IC50 ([4]; Caco-2, 72 h incubation, read-out: concentration needed to reduce cell viability by 50% (IC50)): 23.4 µg/mL
IC50 ([4]; in log10 scale, read-out: IC50 in log10 scale (converted)): 1.37 µM
IC50 ([4]; read-out: IC50): 23.5 µM
IC50 [5]: > 200 µg/mL
toxicity at the highest tested concentration (pig ileum organoids): did not show toxicity; also recorded: no toxicity was seen
